Experimental data: patent US12721823B2, “Methods and compositions for treatment of low circulating testosterone conditions” (University of Florida Research Foundation, Inc., priority 2021, dated 2026)

Assays:
Type in all cases: in vivo, rat
Sprague-Dawley rats [1] = assay: Serum FSH, LH, testosterone (Tn), estradiol (E2) by ELISA and testis weight
Source text: Sixty-four G1 rats (32 control and 32 sevoflurane exposed) and 122 G2 rats, which were not exposed to sevoflurane anesthesia and were subjected to animal facility rearing only, were studied. The G1 rats were sequentially evaluated in the EPM starting on ~P125, PPI of the acoustic startle response on ~P135 and MWM starting ~on P145 (FIG. 1). One half of these animals were sacrificed on ≥P160 to collect trunk blood, brain and testis and ovarian tissues for further analyses. The rest of these animals were physically restrained for 30 min on ≥P160 to measure corticosterone responses, followed by collection of tissue samples (as above) for further analyses. The G2 rats were evaluated in the EPM starting on P60 and PPI of startle on P70 (FIG. 1). One half of these animals were sacrificed on ≥P95 to collect trunk blood and brain tissue samples for further analyses, and the rest of these animals were tested for the corticosterone responses to physical restraint for 30 min on ≥P95 before collecting the trunk blood and brain tissue samples. After decapitation, the trunk blood samples were collected and centrifuged at 4° C., 1000 g for 15 min, and then kept at -80° C. for hormone assays. The brain was removed from the skull onto ice pads. The hypothalamus was isolated by making an anterior cut at the level of the optic chiasm, a posterior coronal section anterior to the mammillary bodies, two sagittal cuts parallel to the lateral ventricles and a dorsal horizontal cut at the level of the anterior commissure, as described elsewhere.^19 The hippocampus was isolated from the respective blocks. All tissue samples were placed in vials filled with RNAlater solution (Invitrogen, Carlsbad, CA) and then stored at -80° C. Testis tissue was removed and washed with 0.9% saline before weighing. Sperm were isolated from the caudal epididymis of adult males into PBS with 1% BSA at 37° C. using a swim-up assay. After settling for 30 min, sperm-containing supernatant was centrifuged for 5 min at 4000 rpm. Sperm pellets were stored at -80° C. After separation from the adipose tissues, ovaries were stored at -80° C. Hormone analyses in serum samples isolated from G1 and G2 rats were performed using commercially available kits according to the manufacturer's instructions. Serum concentrations of FSH (CSB-E06869r) and LH (CSB-E12654r) were quantified using ELISA kits (CUSABIO TECHNOLOGY LLC, Houston, TX, USA). Serum Tn and E2 concentrations were measured using ELISA kits (582701, Cayman Chemical Company, Ann Arbor, MI, USA and E[…]-100, Calbiotech, Spring Valley, CA, USA, respectively).

[2] = tested on: Sprague-Dawley F0 male rats; assay: Long-term serum testosterone after SEVO with or without surgery and TBI; conditions: young adult F0 male rats exposed to SEVO; FIG. 11A
Procedure: The Sprague-Dawley F0 male rats in the TBI group had SEVO exposure for 40 min to conduct a craniectomy and injury hub implantation on P60. After 60 min of recovery, they were reanesthetized with SEVO for 3 min to induce moderate TBI using a midline fluid percussion injury (FPI) model. The TBI+SEVO group had additional exposure to SEVO for 3 h on P62, P64, and P66. These subsequent exposures to SEVO, which may be needed to treat accompanying conditions, such as orthopedic, abdominal, or thoracic injuries, were used to study whether the effects of SEVO, surgery, and TBI interact to induce their effects. The Sham group had all exposures to SEVO and craniectomy but not TBI. The SEVO-SEVO group had all exposures to SEVO only. The control group had none of these procedures, except being placed in a new cage for an equivalent duration and number of times. A subset of F0 male rats was sacrificed on P66 1 h after the last exposure to SEVO for 3 h or at equivalent timepoints to collect blood to study acute neuroendocrine effects (FIG. 11A). The serum corticosterone levels before and after physical restraint for 30 min were measured ion P140. Ten days after completing the in vivo studies, the same rats were sacrificed and trunk blood samples were collected to measure serum levels of testosterone.

Sprague-Dawley rats [3] = assay: Basal and stress-induced (restraint) serum corticosterone, HPA axis activity; conditions: for serum levels of corticosterone before and after physical restraint: all experimental groups
Source text: Sixty-four G1 rats (32 control and 32 sevoflurane exposed) and 122 G2 rats, which were not exposed to sevoflurane anesthesia and were subjected to animal facility rearing only, were studied. The G1 rats were sequentially evaluated in the EPM starting on ~[…], PPI of the acoustic startle response on ~[…] and MWM starting ~on […] (FIG. 1). One half of these animals were sacrificed on ≥[…] to collect trunk blood, brain and testis and ovarian tissues for further analyses. The rest of these animals were physically restrained for 30 min on ≥[…] to measure corticosterone responses, followed by collection of tissue samples (as above) for further analyses. The G2 rats were evaluated in the EPM starting on P60 and PPI of startle on P70 (FIG. 1). One half of these animals were sacrificed on ≥[…] to collect trunk blood and brain tissue samples for further analyses, and the rest of these animals were tested for the corticosterone responses to physical restraint for 30 min on ≥[…] before collecting the trunk blood and brain tissue samples. Blood samples (~300 μl) were collected using the “tail clip” method at rest and 10, 60, and 120 min after the restraint. Physical restraint was administered using rodent holders (Kent scientific Corporation, Torrington, CT). Serum corticosterone was measured using commercial ELISA kits (Cayman Chemical Company, Ann Arbor, MI, USA) according to the manufacturer's instructions.

[4] = G2 males, parental exposure to sevoflurane

SMILES: FCOC(C(F)(F)F)C(F)(F)F [sevoflurane, 1,1,1,3,3,3-hexafluoro-2-(fluoromethoxy)propane]
- serum levels of E2 (estradiol) (Sprague-Dawley rats [1]; G1 female rats, vs control): not different
- serum levels of FSH (Sprague-Dawley rats [1]; G1 female rats, vs control): no significant treatment effects
- serum levels of LH (Sprague-Dawley rats [1]; G1 female rats, vs control): no significant treatment effects
- serum levels of Tn (testosterone) (Sprague-Dawley rats [1]; G1 female rats, vs control): not different
- serum levels of Tn (testosterone) (Sprague-Dawley rats [1]; G1 male rats, more than 3 months after sevoflurane exposure, vs control): significantly increased
- serum levels of FSH (Sprague-Dawley rats [1]; G1 male rats, vs control): not different
- serum levels of LH (Sprague-Dawley rats [1]; G1 male rats, vs control): increased
- testis weight (Sprague-Dawley rats [1]; G1 male rats, vs control): significantly reduced
- serum levels of Tn (Sprague-Dawley rats [1]; [4]): no significant treatment effects
- testis weight (Sprague-Dawley rats [1]; [4]): no significant treatment effects
- serum levels of testosterone [2]: long-term increase
- serum corticosterone levels (Sprague-Dawley rats [3]; G1 female rats, before and after restraint, vs control): no difference
- serum corticosterone (Sprague-Dawley rats [3]; G1 male rats, 10 min after restraint, vs control): higher levels
- total corticosterone responses (AUCg) (Sprague-Dawley rats [3]; G1 male rats, 30 min restraint on ≥P160, vs control): significantly higher
- serum corticosterone (Sprague-Dawley rats [3]; G1 male rats, 60 min after restraint, vs control): higher levels
- serum corticosterone (Sprague-Dawley rats [3]; G1 male rats, 120 min post restraint, vs control): not different
- serum corticosterone (Sprague-Dawley rats [3]; G1 male rats, before the restraint, vs control): not different
- serum levels of corticosterone before and after physical restraint (Sprague-Dawley rats [3]; G2 female rats): no differences
- serum levels of corticosterone before and after physical restraint (Sprague-Dawley rats [3]; G2 male rats): no differences
